Measured values taken from patent publication US20220305121A1, “N-ARYL SULFONAMIDE DERIVATIVES AS VACCINE ADJUVANT” (The Regents of the University of California, priority 2019, published 2022).
Entries after “also recorded” stand apart in the source; their conditions may differ.

How the values were obtained:
[1] = system: THP-1 cells; assay: Cell viability assay (MTT); format: cell-based; conditions: compound 5 μM, 18 hours incubation; normalized to DMSO as 100%; mean
Method in brief: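 Cells at 10^5/well in RPMI with 10% FBS were exposed to compound at 5 μM final (0.05% DMSO) for 18 h. MTT (0.5 mg/mL) then added for 4-6 h, cells lysed overnight in SDS/HCl, absorbance read at 570 nm against 650 nm reference.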

[2] = system: NF-κB and ISRE; assay: NF-κB and ISRE reporter assays (primary screens), statements in words for both assays; format: cell-based; conditions: for activity in NF-κB and ISRE assays (in words): with LPS or IFN-α as primary stimulus, compared to compound 1
Method in brief: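 Single 5 μM compound (0.05% DMSO). NF-κB: THP1-Blue cells with 10 μg/mL LPS, 20 h, SEAP by absorbance at 630 nm. ISRE: ISRE-bla THP-1 cells with 100 U/mL IFN-α, 16 h, CCF4-AM 465/535 nm ratio. Both normalized to stimulus alone as 100%, compound 1 plus stimulus as 200%.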

[3] = system: ISRE; assay: Measurement of ISRE activity in ISRE-bla THP-1 cells (FRET, IFN-α as primary stimulus); format: cell-based; conditions: for activity at 5 µM / EC50: Homo sapiens, THP-1; for activity at 5 µM / ISRE % Activation: compound 5 μM + IFN-α 100 U/mL, 16 hours, two point normalized: compound 1 + IFN-α = 200%, IFN-α = 100%, mean; for activity at 5 µM: read-out: ISRE % Activation; for EC50: dose response in the presence of IFN-α
Method in brief: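 Cells at 5×10^4/well in RPMI with 10% dialyzed FBS, treated with compound at 5 μM (0.05% DMSO) plus IFN-α at 100 U/mL (final) for 16 h. CCF4-AM substrate added for 3 h at room temperature. Background-subtracted 465/535 nm emission ratio, 2-point normalized: IFN-α alone 100%, compound 1+IFN-α 200%.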

[4] = system: NF-κB; assay: Measurement of NF-κB activation using THP1-Blue NF-κB cells (SEAP reporter, LPS as primary stimulus); format: cell-based; conditions: for activity at 5 µM / NF-κB % Activation: compound 5 μM + LPS, 20 hour incubation, two point normalized: compound 1 + LPS = 200%, LPS = 100%, mean; for EC50: dose response in the presence of LPS
Method in brief: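 THP1-Blue NF-κB cells (10^5/well, RPMI + 10% FBS) were co-treated with LPS 10 μg/mL and compound 5 μM (final, […]) for 20 h. Supernatant SEAP was read by QuantiBlue colorimetry at 630 nm. Two-point normalization set LPS alone to 100% and compound 1+LPS to 200%.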

[5] = system: C57BL/6 (wild-type, WT) mice; assay: In vivo adjuvant activity study (ovalbumin + MPLA + compound, OVA-specific IgG by ELISA); conditions: coimmunization with MPLA and ovalbumin; for OVA-specific IgG antibody titers: intramuscular, days 0 and 21, compared to MPLA alone
[6] = Stability of compound 48 in DMSO stock and in assay media; format: physicochemical
Experimental: However, before proceeding with syntheses of additional acylated analogs, its stability in stock solutions was evaluated since during the assay this compound could behave as a prodrug by undergoing deacetylation to release active compound 1. […] Thus, syntheses of additional acylated analogs were not pursued.

| Compound | MTT % Viability [1] | NF-κB or ISRE activity when tested alone ([2]; tested alone, without LPS or IFN-α) | activity in NF-κB and ISRE assays (in words) [2] | activity at 5 µM [3] | EC50 [3] | activity at 5 µM [4] | systemic toxicity as indicated by behavior change or weight loss [5] | OVA-specific IgG antibody titers [5] | EC50 [4] | incubation with assay media ([6]; assay media, data not shown) | stability of stock in DMSO ([6]; stock in DMSO) | activity in NF-κB and ISRE assays (in words) ([2]; hydrochloride) | ISRE % Activation [3] | NF-κB % Activation [4] |
| --- | --- | --- | --- | --- | --- | --- | --- | --- | --- | --- | --- | --- | --- | --- |
| CCOc1ccc(S(=O)(=O)Nc2cc(OC)c(Cl)cc2OC)cc1 [Compound 1, N-(4-chloro-2,5-dimethoxyphenyl)-4-ethoxybenzenesulfonamide] | 73.5% | little if any | enhanced their activation; also recorded: retained activity; also recorded: sustained NF-κB and ISRE activation | 200% | 660 nM | 200% | without demonstrable systemic toxicity | statistically significant increases; also recorded: significant enhancement of antibody titers | – | – | – | – | – | – |
| CCOc1ccc(S(=O)(=O)N(C)c2cc(OC)c(Cl)cc2OC)cc1 [Compound 33, N-(4-chloro-2,5-dimethoxyphenyl)-4-ethoxy-N-methylbenzenesulfonamide] | 74.5% | – | equipotent as compound 1 | 215% | 840 nM | 235% | without demonstrable systemic toxicity | statistically significant increases; also recorded: significant enhancement of antibody titers | 690 nM | – | – | – | – | – |
| CCOc1ccc(S(=O)(=O)N(C(C)=O)c2cc(OC)c(Cl)cc2OC)cc1 [Compound 48, N-(4-chloro-2,5-dimethoxyphenyl)-N-((4-ethoxyphenyl)sulfonyl)acetamide] | 72.0% | – | active | – | – | – | – | – | – | release of compound 1 | stable | – | – | – |
| CCOc1ccc(S(=O)(=O)N(CCCN)c2cc(OC)c(Cl)cc2OC)cc1.Cl [Compound 55, N-(3-aminopropyl)-N-(4-chloro-2,5-dimethoxyphenyl)-4-ethoxybenzenesulfonamide hydrochloride] | 71.0% | – | – | 182% | 3040 nM | 189% | – | – | 3320 nM | – | – | recovered; also recorded: less potent than compound 1; also recorded: retained activity even though slightly attenuated | – | – |
| CCOc1ccc(S(=O)(=O)N(CCCNC(=O)CCCCCNC(=O)c2ccc3c(c2)C(=O)OC32c3ccc(O)cc3Oc3cc(O)ccc32)c2cc(OC)c(Cl)cc2OC)cc1 [Compound 56, N-(6-((3-((N-(4-chloro-2,5-dimethoxyphenyl)-4-ethoxyphenyl)sulfonamido)propyl)amino)-6-oxohexyl)-3′,6′-dihydroxy-3-oxo-3H-spiro[isobenzofuran-1,9′-xanthene]-5-carboxamide] | 98.1% | – | completely inactive | – | – | – | – | – | – | – | – | – | 96% | 100% |
| CCOc1ccc(S(=O)(=O)N(CCCNC(=O)CCCC[C@H]2SC[C@H]3NC(=O)N[C@H]32)c2cc(OC)c(Cl)cc2OC)cc1 [Compound 58, N-(3-((N-(4-chloro-2,5-dimethoxyphenyl)-4-ethoxyphenyl)sulfonamido)propyl)-5-((3aR,4R,6aS)-2-oxohexahydro-1H-thieno[3,4-d]imidazol-4-yl)pentanamide] | 69.6% | – | equipotent to compound 1 | – | – | – | – | – | – | – | – | – | 175% | 195% |
| C#CCN(c1cc(OC)c(N=[N+]=[N-])cc1OC)S(=O)(=O)c1ccc(OCC)cc1 [Compound 62, N-(4-azido-2,5-dimethoxyphenyl)-4-ethoxy-N-(prop-2-yn-1-yl) benzenesulfonamide] | 73.4% | – | very potent | – | – | – | – | – | – | – | – | – | 182% | 217% |
| CCOc1ccc(S(=O)(=O)N(CCCNC(=O)CCCC[C@H]2SC[C@H]3NC(=O)N[C@H]32)c2cc(OC)c(N=[N+]=[N-])cc2OC)cc1 [Compound 64, N-(3-((N-(4-azido-2,5-dimethoxyphenyl)-4-ethoxyphenyl)sulfonamido)propyl)-5-((3aR,4R,6aS)-2-oxohexahydro-1H-thieno[3,4-d]imidazol-4-yl) pentanamide] | 73.8% | – | relatively weak activity | – | – | – | – | – | – | – | – | – | 140% | 162% |
| N-(9-(2-carboxy-44(34(N-(4-chloro-2,5-dimethoxyphenyl)-4-ethoxyphenyl)sulfonamido)propyl)carbamoyl)phenyl)-6-(diethylamino)-3H-xanthen-3-ylidene)-N-ethylethanaminium [Compound 57] | 76.9% | – | reduced activity compared to compound 1 | – | – | – | – | – | – | – | – | – | 123% | 111% |
